The IC50 is the point on the concentration scale where inhibition reaches its midpoint.

In one assay the target is T1, FLT3 (Homo sapiens, UniProt P36888).
T1 sequence (P36888 27-993): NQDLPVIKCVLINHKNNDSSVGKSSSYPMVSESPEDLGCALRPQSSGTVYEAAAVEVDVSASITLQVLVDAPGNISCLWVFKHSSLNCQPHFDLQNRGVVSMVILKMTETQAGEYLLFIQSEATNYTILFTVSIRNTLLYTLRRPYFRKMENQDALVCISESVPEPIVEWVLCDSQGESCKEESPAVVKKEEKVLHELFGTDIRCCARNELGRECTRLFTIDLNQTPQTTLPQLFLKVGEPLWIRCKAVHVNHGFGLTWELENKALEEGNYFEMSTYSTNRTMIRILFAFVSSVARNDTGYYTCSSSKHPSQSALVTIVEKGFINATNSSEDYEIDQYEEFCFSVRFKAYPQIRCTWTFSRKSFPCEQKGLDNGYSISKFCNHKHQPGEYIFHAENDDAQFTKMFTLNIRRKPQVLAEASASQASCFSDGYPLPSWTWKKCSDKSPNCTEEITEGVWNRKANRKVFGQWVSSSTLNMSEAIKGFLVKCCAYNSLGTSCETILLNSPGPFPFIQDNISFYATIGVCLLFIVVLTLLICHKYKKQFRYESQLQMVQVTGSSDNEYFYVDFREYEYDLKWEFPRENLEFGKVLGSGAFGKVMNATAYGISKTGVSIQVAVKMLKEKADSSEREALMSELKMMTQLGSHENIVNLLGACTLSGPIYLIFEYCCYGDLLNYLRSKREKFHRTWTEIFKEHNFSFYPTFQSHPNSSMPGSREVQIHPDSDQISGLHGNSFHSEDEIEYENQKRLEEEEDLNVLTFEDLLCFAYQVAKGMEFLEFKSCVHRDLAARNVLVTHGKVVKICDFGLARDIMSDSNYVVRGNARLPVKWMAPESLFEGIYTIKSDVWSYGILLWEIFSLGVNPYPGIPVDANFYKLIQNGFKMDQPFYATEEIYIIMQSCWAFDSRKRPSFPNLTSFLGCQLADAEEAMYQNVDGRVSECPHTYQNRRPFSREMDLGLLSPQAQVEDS
Put plainly: TR-FRET kinase activity assay, FLT3. The class given is biochemical. Conditions: ATP at Km, 60 minutes. The gist of the method: (§1)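 Enzyme + labelled peptide + cpd premixed; ATP at per-enzyme Km starts rxn. 60 min RT, HEPES pH 7.5/MgCl2/EGTA/Brij 35/DTT buffer. Stop 12.5 mM EDTA, Eu phospho-Ab 30 min dark, TR-FRET read → IC50.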
A general note: Time-resolved FRET reads energy transfer from a long-lived donor to a nearby acceptor.

The target in a further assay is T2, TYRO3 (Homo sapiens, UniProt Q06418).
T2 sequence (Q06418 41-890): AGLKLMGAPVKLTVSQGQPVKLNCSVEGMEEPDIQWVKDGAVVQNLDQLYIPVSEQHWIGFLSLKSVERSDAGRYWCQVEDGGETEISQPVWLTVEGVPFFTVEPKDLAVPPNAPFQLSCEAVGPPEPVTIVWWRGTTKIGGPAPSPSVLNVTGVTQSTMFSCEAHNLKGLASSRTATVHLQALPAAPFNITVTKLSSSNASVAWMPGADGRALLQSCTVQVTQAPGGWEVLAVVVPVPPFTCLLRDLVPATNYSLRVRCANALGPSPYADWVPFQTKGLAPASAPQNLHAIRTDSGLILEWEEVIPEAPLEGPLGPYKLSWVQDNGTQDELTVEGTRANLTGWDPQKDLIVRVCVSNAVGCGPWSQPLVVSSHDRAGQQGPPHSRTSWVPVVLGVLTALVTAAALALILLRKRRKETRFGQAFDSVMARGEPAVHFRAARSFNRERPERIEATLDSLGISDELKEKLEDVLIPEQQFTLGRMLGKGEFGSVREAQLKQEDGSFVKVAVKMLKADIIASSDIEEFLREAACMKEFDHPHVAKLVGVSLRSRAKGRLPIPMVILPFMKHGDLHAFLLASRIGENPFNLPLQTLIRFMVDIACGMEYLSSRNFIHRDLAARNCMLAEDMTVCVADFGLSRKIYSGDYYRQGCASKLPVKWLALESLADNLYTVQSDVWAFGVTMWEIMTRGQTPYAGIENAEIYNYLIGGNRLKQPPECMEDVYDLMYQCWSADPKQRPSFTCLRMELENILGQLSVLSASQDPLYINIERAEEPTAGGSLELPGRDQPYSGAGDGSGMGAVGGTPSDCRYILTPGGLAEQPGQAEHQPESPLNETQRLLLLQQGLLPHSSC
Put plainly: TR-FRET kinase activity assay, TYRO3. The class given is biochemical. Particulars: ATP at Km, 60 minutes. In short, it runs like this: as §1

SMILES strings stand for the structures.

On to `COC[C@H](C)Nc1ncc2c(-c3cnn(C(C)(C)C(=O)N4CCC4)c3)cc([C@H]3CC[C@H](O)CC3)n2n1` [Compound 283], for which the results for the IC50 on FLT3 and against TYRO3 were 1000 to 10000 nM and not above 100 nM, respectively.

As to `COC[C@H](C)Nc1ncc2c(-c3cnn(Cc4nnc(C)o4)c3)cc([C@H]3CC[C@H](O)CC3)n2n1` [Compound 277], the 50% inhibitory concentration (IC50) at FLT3 and against TYRO3 was not above 100 nM throughout.

Regarding `C[C@@H](CC(F)(F)F)Nc1ncc2c(-c3cncc(C(=O)N(C)C)c3)cc([C@H]3CC[C@H](O)CC3)n2n1` [Compound 310], the IC50 on FLT3 was 100 to 1000 nM; against TYRO3 it was not above 100 nM.

In the case of `C[C@@H](CC(F)(F)F)Nc1ncc2c(-c3cn[nH]c3)cc([C@H]3CC[C@H](O)CC3)n2n1` [Compound 276], the IC50 at FLT3 was 100 to 1000 nM; at TYRO3, not above 100 nM.

With `COC[C@H](C)Nc1ncc2c(-c3cnn(Cc4ccnnc4)c3)cc([C@H]3CC[C@H](O)CC3)n2n1` [Compound 281], the IC50 at FLT3 and against TYRO3 was not above 100 nM throughout.

With `C[C@@H](CC(F)(F)F)Nc1ncc2c(-c3cnn([C@H]4CCOC4)c3)cc([C@H]3CC[C@H](O)CC3)n2n1` [Compound 290], the IC50 against FLT3 and at TYRO3 was not above 100 nM throughout.

Take `COC[C@H](C)Nc1ncc2c(-c3cnn(C(C)(C)C(=O)N4CCC5(COC5)C4)c3)cc([C@H]3CC[C@H](O)CC3)n2n1` [Compound 318]: the IC50 at FLT3 is 1000 to 10000 nM; at TYRO3, not above 100 nM.

Consider `COC[C@H](C)Nc1ncc2c(-c3cnn(C(C)(C)C(=O)N4C[C@H]5CC[C@@H](C4)O5)c3)cc([C@H]3CC[C@H](O)CC3)n2n1` [Compound 327], for which the IC50 against FLT3 is 1000 to 10000 nM; at TYRO3, not above 100 nM.

For `CCCCC[C@H](C)Nc1ncc2c(C3=CC[C@@H](C(=O)N4CCOCC4)CC3)cc([C@H]3CC[C@H](O)CC3)n2n1` [Compound 113], the concentration for half-maximal inhibition (IC50) is 100 to 1000 nM against FLT3 and not above 100 nM at TYRO3.

For `CC[C@H](C)Nc1ncc2c(-c3ccc(CN4CCN(C)CC4)cc3)cc([C@H]3CC[C@H](O)CC3)n2n1` [Compound 118], the IC50 at FLT3 and against TYRO3 was not above 100 nM in each case.

As for `CNS(=O)(=O)c1cncc(-c2cc([C@H]3CC[C@H](O)CC3)n3nc(N[C@@H](C)COC)ncc23)c1` [Compound 272], the IC50 on FLT3 is 100 to 1000 nM; on TYRO3, not above 100 nM.

Turning to `COC[C@H](C)Nc1ncc2c(-c3cnn([C@@H]4CCNC4=O)c3)cc([C@H]3CC[C@H](O)CC3)n2n1` [Compound 315], the concentration for half-maximal inhibition (IC50) against FLT3 is 100 to 1000 nM; against TYRO3 it was not above 100 nM.

With `COC[C@H](C)Nc1ncc2c(-c3cnn(C(C)(C)C(=O)C4C[C@H]5COC[C@H]5C4)c3)cc([C@H]3CC[C@H](O)CC3)n2n1` (stereo partly shown) [Compound 319], the IC50 on FLT3 is 1000 to 10000 nM; against TYRO3 it was not above 100 nM.

For the compound `COC[C@H](C)Nc1ncc2c(-c3ccc(CN4CCOCC4)cc3)cc([C@H]3CC[C@H](NC(C)=O)CC3)n2n1` [Compound 300, N-((trans)-4-(2-(((S)-1-methoxypropan-2-yl)amino)-5-(4-(morpholinomethyl)phenyl)pyrrolo[2,1-f][1,2,4]triazin-7-yl)cyclohexyl)acetamide], the IC50 was 100 to 1000 nM on FLT3 and not above 100 nM against TYRO3.

`COC[C@H](C)Nc1ncc2c(-c3cnn(C(C)(C)C(=O)N4CCOCC4)c3)cc([C@H]3CC[C@H](O)CC3)n2n1` [Compound 282]: the values for the IC50 against FLT3 and on TYRO3 were 100 to 1000 nM and not above 100 nM, respectively.

`COC[C@H](C)Nc1ncc2c(-c3cnn(Cc4noc(C)n4)c3)cc([C@H]3CC[C@H](O)CC3)n2n1` [Compound 285]: the IC50 at FLT3 is 100 to 1000 nM; against TYRO3, not above 100 nM.

In the case of `CNC(=O)c1ccc(-c2cc([C@H]3CC[C@H](O)CC3)n3nc(N[C@@H](C)COC)ncc23)cn1` [Compound 317], the IC50 against FLT3 and against TYRO3 was not above 100 nM each time.

These data come from patent US11040981B2, “Pyrrolotriazine compounds and methods of inhibiting TAM kinases” (Syros Pharmaceuticals, Inc., priority 2017, dated 2021).
